This is an account of results in patent publication US7582725B2, “Agents, which inhibit apoptosis in cells that are involved in wound healing” (Dermatools Biotech GmbH, priority 2001, dated 2009).

Type in all cases: cell-based
Assay [1] deals with MRC-5 fibroblasts. The assay is described as follows: Tension-dependent apoptosis of MRC-5 fibroblasts in collagen matrices (relaxed), DAPI staining. As to conditions: relaxed collagen matrix. The method, then:
2×10^5 cells are seeded in each collagen matrix. For this purpose, 100 μl of the cell suspension (the appropriate cell titer is adjusted after the trypsinization in serum-free DMEM) are introduced into 1.5 ml reaction vessels pre-equilibrated at 37° C., 100 μl of the neutralized collagen solution are added, and the resulting solution is incubated at 37° C. for 4 min. The collagen concentration is 1.5 mg/ml. The cell/collagen suspension is seeded in 24-well cell culture plates or in 3.5 cm culture dishes. The matrix is polymerized at 37° C. for 60 min.
The matrices are covered with a layer of culture medium (DMEM+10% FCS+50 μg/ml ascorbic acid) and cultivated in an incubator at 37° C. and 8.5% by volume CO2 in a water vapor-saturated air atmosphere for 24 h.
The adherent matrix is cautiously detached with a spatula from the substrate and “floats” in the culture medium without contact with the substrate. The tension is abolished. The cultivation takes place for the period stated in each case.
The cells are cultivated as stated in example 11. Day “0” corresponds to the time after 24 h cultivation with ascorbic acid-containing medium before further cultivation under tensioned or relaxed conditions. After the stated times, the cell/collagen matrix is fixed in 4% (w/v) paraformaldehyde in PBS, followed by DAPI staining. […]

For assay [2], the system named is MRC-5 fibroblasts. The assay is described as follows: Incubation of fibroblasts with anti-apoptotic peptides: TSP-1 induced apoptosis, DAPI staining. As to conditions: 24 h; for Inhibition index [%]: 100−(measured apoptosis index*100/control apoptosis index), 1 μg/ml TSP-1 + peptide 1 mM; for Apoptosis index [%]: static, fresh medium with 1 μg/ml TSP-1 + peptide 1 mM, 3 independent experiments, average ± SD. The method, then:
The cells are cultivated under static culture conditions as in example 1/variant 1B1. The cells are seeded in the appropriate culture vessels (e.g. 24-well plate/0.5 ml per well) and employed for the test 3 days after complete confluence is reached. The cells are provided with new medium: • (a) fresh culture medium [basic rate of apoptosis] • (b) fresh culture medium with 1 μg/ml TSP-1 [apoptosis-inducing substance; control] • (c) culture medium (b)+peptide of SEQ ID NO 1; 1 mM • (d) culture medium (b)+peptide of SEQ ID NO 2; 1 mM • (e) culture medium (b)+peptide of SEQ ID NO 3; 1 mM • (f) culture medium (b)+peptide of SEQ ID NO 4; 1 mM • (g) culture medium (b)+peptide of SEQ ID NO 7; 1 mM • (h) culture medium (b)+peptide of SEQ ID NO 8; 1 mM • (i) culture medium (b)+peptide of SEQ ID NO 9; 1 mM • (j) culture medium (b)+peptide of SEQ ID NO 10; 1 mM • (k) culture medium (b)+peptide of SEQ ID NO 11; 1 mM • (l) culture medium (b)+peptide of SEQ ID NO 5; 1 mM • (m) culture medium (b)+peptide of SEQ ID NO 6; 1 mM
After incubation under culture conditions (example 1) for 24 h, the cells are fixed, stained with DAPI and examined morphologically under the fluorescence microscope. The apoptotic cells and the total number of cells are determined, and the apoptosis index is calculated (percent of apoptotic cells). The data from 3 independent experiments are indicated in the following table, indicating the averages and the standard deviation.
The inhibition index of the peptides employed is calculated as follows:
Inhibition index [%]=100−(measured apoptosis index* 100/control apoptosis index)

Assay [3] concerns MRC-5 fibroblasts. The assay is described as follows: Rate of apoptosis of dynamically cultivated MRC-5 fibroblasts (cone and plate shear apparatus), DAPI staining. The method, then: The fibroblasts are initially cultivated under static conditions until confluence is reached. This is followed by cultivation under dynamic conditions in the cone and plate shear apparatus (after Bussolori et al. (1982) Rev. Sci. Instrum. 53, 1851-1854) for 24 h.
This is done by precultivation of the cells initially in gelatinized culture dishes (◯=35 mm) with 0.15 ml/cm^2 culture medium and then further cultivation under turbulent or laminar flow conditions in the cone and plate shear apparatus for a maximum of 24 h. The flow conditions result from the angle of the cone. The flow over the cells is turbulent at a cone angle of 5° and is laminar at a cone angle of 0.5°.
Before use, the cone and plate shear apparatus is cleaned with a soft cloth and 70% (v/v) ethanol, the cone is sterilized and the apparatus is equilibrated at 37° C. in a heating cabinet. […]
The culture supernatant from a Petri dish is aspirated off, and the cell lawn is fixed with 1 ml of formaldehyde solution on ice for 15 minutes, washed twice with 2 ml of PBS, treated with 0.5 ml of DAPI solution for 15 minutes, washed with PBS and evaluated under the fluorescence microscope. […] 500-1 000 cells are selected at random, and the cells with apoptotic nuclei are counted. […]

The subject of assay [4] is MRC-5 fibroblasts. Kind of assay: Rate of apoptosis of statically cultivated MRC-5 fibroblasts, DAPI staining. The settings on record: for Apoptosis [%]: static, 24 h, substance in fresh medium, or conditioned medium alone. The method, then: The MRC-5 cell line used is seeded in ungelatinized cell culture vessels. The subsequent cultivation takes place in an incubator at 37° C. and 5% by vol. CO2 in a water vapor-saturated atmosphere. The culture medium is changed every second to third day and, after confluence is reached, the cells are passaged with a division rate from 1:5 to 1:10.
The culture supernatant from a Petri dish is aspirated off, and the cell lawn is fixed with 1 ml of formaldehyde solution on ice for 15 minutes, washed twice with 2 ml of PBS, treated with 0.5 ml of DAPI solution for 15 minutes, washed with PBS and evaluated under the fluorescence microscope. The UV filter set and a 20× or 40× objective are used. 500-1 000 cells are selected at random, and the cells with apoptotic nuclei are counted.
The apoptosis index is calculated by the following formula: […]
The used culture medium from a confluent MRC-5 fibroblast culture is removed, and the cell lawn is washed once with culture medium and cultivated under the stated conditions for 24 h.
The used culture medium from a confluent culture is removed, and the cell lawn is washed once with culture medium and cultivated under the stated conditions for 24 h.

As for `CO[C@@H]1C(=O)O[C@H](C)[C@H](C)/C=C(\C)C[C@H](C)C(=O)N[C@@H](C)C(=O)N(C)[C@H](Cc2c[nH]c3ccccc23)C(=O)N[C@H]1c1ccc(O)cc1` [chondramide A, reference compound], the “Apoptosis [%]” value in the assay on MRC-5 fibroblasts [1] (Example 14, 1 μM for 1 h before detachment, 8 h further cultivation) was found to be 1.0 ± 0.2%.

As for “K-R-A-Y-V-V-M-W-K-K (KRAYVVMWKK) [SEQ ID NO 5]”, in the assay on MRC-5 fibroblasts [2], the “Inhibition index [%]” value is 90.1 ± 4.9% and the “Apoptosis index [%]” value was 0.42 ± 0.21%.

With “K-R-E-Y-V-V-M-W-K-K (KREYVVMWKK) [SEQ ID NO 6]”, in the assay on MRC-5 fibroblasts [2], the “Inhibition index [%]” value is recorded as 94.4 ± 4.2% and the “Apoptosis index [%]” value is 0.24 ± 0.18%.

Regarding R-A-Y-V-V-M (RAYVVM) [SEQ ID NO 1], in the assay on MRC-5 fibroblasts [2], the “Inhibition index [%]” value was 71.4 ± 6.8% and the “Apoptosis index [%]” value was 1.21 ± 0.29%.

In the case of R-D-Y-V-V-M (RDYVVM) [SEQ ID NO 11], in the assay with MRC-5 fibroblasts [2], the “Inhibition index [%]” value is given as 38.9 ± 16.7% and the “Apoptosis index [%]” value was found to be 2.66 ± 0.71%.

Consider R-E-Y-V-V-M (REYVVM) [SEQ ID NO 4], for which, in the assay on MRC-5 fibroblasts [2], the “Inhibition index [%]” value amounted to 80.4 ± 7.0% and the “Apoptosis index [%]” value was 0.87 ± 0.32%.

Consider R-G-Y-V-V-M (RGYVVM) [SEQ ID NO 7], for which, in the assay with MRC-5 fibroblasts [2], the “Inhibition index [%]” value is 53.7 ± 13.9% and the “Apoptosis index [%]” value came out at 2.00 ± 0.59%.

For the compound R-M-Y-V-V-M (RMYVVM) [SEQ ID NO 8], in the assay on MRC-5 fibroblasts [2], the “Inhibition index [%]” value was 42.8 ± 6.9% and the “Apoptosis index [%]” value is on record as 2.46 ± 0.29%.

Turning to R-N-Y-V-V-M (RNYVVM) [SEQ ID NO 10], in the assay with MRC-5 fibroblasts [2], the “Inhibition index [%]” value is listed as 13.5 ± 16.2% and the “Apoptosis index [%]” value is on record as 3.70 ± 1.11%.

R-T-Y-V-V-M (RTYVVM) [SEQ ID NO 9]: in the assay with MRC-5 fibroblasts [2], the “Inhibition index [%]” value is on record as 25.4 ± 11.8% and the “Apoptosis index [%]” value came out at 3.19 ± 0.50%.

In the case of R-W-Y-V-V-M (RWYVVM) [SEQ ID NO 2], in the assay with MRC-5 fibroblasts [2], the “Inhibition index [%]” value worked out at 53.7 ± 6.8% and the “Apoptosis index [%]” value is on record as 2.00 ± 0.29%.

Consider R-Y-Y-V-V-M (RYYVVM) [SEQ ID NO 3], for which, in the assay on MRC-5 fibroblasts [2], the “Inhibition index [%]” value was 65.3 ± 0.9% and the “Apoptosis index [%]” value was determined as 1.45 ± 0.04%.

On to thrombospondin 1 [TSP-1], for which the Apoptosis [%] is on record as 0.4 ± 0.1% in the assay with MRC-5 fibroblasts [3] (dynamic cultivation, 24 h, conditioned medium alone or fresh medium + TSP-1); 5.6 ± 0.2% with MRC-5 fibroblasts [4] (Example 6); 5.6 ± 0.2% in the assay on MRC-5 fibroblasts [4] (Example 7); 10.5 ± 0.5% in the assay on MRC-5 fibroblasts [1] (Example 13, DMEM/FCS + substance, 24 h, antibodies 50 μg/ml, Tsp1 20 μg/ml). For the same compound, the “Effect on apoptosis of dynamic fibroblast cell culture (in words)” value in the assay with MRC-5 fibroblasts [3] (dynamic culture) is on record as “no effect on apoptosis”. For the same compound, the “Effect on apoptosis of statically cultivated fibroblasts (in words)” value in the assay with MRC-5 fibroblasts [4] (static culture) was “increase in spontaneous apoptosis”.
